Results from US10052310B2, “Separase inhibitors and uses thereof” (Baylor College of Medicine, priority 2013, dated 2018).
pIC50: −log10 of the molar value. “Also recorded” adds a separate entry of the source. Like-named read-outs stand apart in the source and are kept apart here.

Assays:
Separase [1] = biological target: T1, Separase (Homo sapiens, UniProt Q14674); assay: Fluorogenic Separase activity assay using (Rad21)2-Rh110 as substrate; type: biochemical; conditions: for pIC50: (Rad21)2-Rh110 substrate
T1 construct: made in house; host or cells: 293T cells; released from IgG-Agarose by TEV protease
T1 sequence (Q14674 whole entry): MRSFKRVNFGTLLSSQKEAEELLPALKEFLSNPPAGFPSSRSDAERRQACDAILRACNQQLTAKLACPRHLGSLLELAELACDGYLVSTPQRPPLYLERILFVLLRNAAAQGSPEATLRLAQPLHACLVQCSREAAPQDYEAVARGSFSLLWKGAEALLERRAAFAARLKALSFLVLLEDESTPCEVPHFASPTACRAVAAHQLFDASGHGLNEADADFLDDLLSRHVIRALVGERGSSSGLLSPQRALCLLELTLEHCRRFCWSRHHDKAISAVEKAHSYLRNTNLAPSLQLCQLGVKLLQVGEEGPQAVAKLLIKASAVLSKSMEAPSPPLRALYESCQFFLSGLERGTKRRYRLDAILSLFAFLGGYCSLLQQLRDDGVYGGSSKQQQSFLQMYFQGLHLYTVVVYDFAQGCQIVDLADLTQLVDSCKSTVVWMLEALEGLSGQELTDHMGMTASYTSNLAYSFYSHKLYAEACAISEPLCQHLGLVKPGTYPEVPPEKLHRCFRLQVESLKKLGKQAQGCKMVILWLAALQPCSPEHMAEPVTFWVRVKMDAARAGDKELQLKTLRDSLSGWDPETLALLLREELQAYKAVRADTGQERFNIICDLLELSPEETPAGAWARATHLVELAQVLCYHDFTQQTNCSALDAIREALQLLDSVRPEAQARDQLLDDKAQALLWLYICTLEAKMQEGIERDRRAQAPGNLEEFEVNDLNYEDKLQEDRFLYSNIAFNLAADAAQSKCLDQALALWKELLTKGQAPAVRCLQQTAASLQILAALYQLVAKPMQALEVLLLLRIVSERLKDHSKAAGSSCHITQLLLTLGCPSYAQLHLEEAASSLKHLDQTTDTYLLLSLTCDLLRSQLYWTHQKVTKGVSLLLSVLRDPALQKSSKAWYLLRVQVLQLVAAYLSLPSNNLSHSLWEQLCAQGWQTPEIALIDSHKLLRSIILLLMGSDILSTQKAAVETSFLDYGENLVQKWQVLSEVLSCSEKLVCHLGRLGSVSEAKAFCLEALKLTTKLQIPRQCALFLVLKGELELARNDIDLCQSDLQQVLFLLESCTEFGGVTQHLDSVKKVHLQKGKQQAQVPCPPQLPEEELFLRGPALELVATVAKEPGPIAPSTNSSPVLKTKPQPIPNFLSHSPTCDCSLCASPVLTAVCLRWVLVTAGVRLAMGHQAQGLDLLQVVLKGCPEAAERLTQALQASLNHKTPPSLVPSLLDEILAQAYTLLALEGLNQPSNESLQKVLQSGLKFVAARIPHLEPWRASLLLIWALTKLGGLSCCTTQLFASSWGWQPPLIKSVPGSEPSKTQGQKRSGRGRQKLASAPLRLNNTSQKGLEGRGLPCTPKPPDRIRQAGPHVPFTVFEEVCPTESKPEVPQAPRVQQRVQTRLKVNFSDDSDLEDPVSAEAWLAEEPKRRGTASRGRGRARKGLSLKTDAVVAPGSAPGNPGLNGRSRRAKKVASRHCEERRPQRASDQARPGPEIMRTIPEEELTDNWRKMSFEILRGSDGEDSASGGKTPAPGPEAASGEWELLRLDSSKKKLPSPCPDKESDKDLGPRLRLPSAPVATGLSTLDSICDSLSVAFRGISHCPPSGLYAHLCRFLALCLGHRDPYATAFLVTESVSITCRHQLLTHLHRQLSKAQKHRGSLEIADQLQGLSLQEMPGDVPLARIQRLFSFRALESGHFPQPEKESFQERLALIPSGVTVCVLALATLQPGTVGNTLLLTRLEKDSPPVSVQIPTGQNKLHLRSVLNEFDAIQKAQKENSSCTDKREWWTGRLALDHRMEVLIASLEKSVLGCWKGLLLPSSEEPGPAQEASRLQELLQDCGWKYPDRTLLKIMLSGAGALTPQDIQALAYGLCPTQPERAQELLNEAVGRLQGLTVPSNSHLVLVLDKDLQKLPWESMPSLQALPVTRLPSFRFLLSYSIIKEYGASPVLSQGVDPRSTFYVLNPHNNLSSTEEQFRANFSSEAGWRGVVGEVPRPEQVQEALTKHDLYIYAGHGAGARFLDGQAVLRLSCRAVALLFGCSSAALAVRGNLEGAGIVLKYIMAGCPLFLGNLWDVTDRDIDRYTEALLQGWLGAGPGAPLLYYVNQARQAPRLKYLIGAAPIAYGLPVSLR
Protocol: The substrate used in this Example is (Rad21)2-Rh110, which has two Rad21 peptide molecules (Asp-Arg-Glu-Ile-Nle-Arg) conjugated to one molecule of Rhodamine 110 (Rh110) (CPC Scientific, Sunnyvale Calif.). The assay was set up using 384-well low volume black polystyrene plates (Corning, N.Y.). Fifteen micro liter of activated Separase (˜5 ng) was mixed with 5 μl of test compound. The cleavage buffer (CB) used to dilute reagents was (30 mM Hepes-KOH pH7.7, 50 mM NaCl, 25 mM NaF, 25 mM KCl, 5 mM MgCl2, 1.5 mM ATP, and 1 mM EGTA). The mixture was incubated at room temperature for 1 h, and then 5 μl of 0.2 mM substrate (Rad21)2-Rh110 was added. The positive control contained Separase, substrate and CB without the test compound. The negative control contained substrate and CB only. After the reaction mixture was incubated at 37° C. for 3 h, the relative fluorescence intensity was measured (without stopping the enzymatic activity) at λex=390 nm/λem=450 nm for […] (AMC) released from Rad21-MCA or λex=490 nm/λem=528 nm for Rh110 released from (Rad21)2-Rh110 using a Synergy™ 4 Multi-Mode Microplate Reader (BioTek Instruments Inc., Winooski, Vt.).
Different amounts of Sepin-1 were mixed with activated Separase for 30 min before substrate (Rad21)2-Rh110 was added. After 3 h incubation at 37° C., the fluorescence intensity of Rh110 was determined. IC50 was calculated using either KaleidaGraph program (Synerge software, Reading, Pa.) or four parameter logistic equation (4-parameter dose-response curve fit): Inhibition of Activity (%)=min+(max−min)/{1+(log [M]/IC50)}^Hill Slop, where “min” and “max” represent minimal and maximal activity inhibition, respectively. Hill Slop is the slope of the curve at its midpoint. To identify the mode of Sepin-1 interacting with Separase, different amounts of both Sepin-1 and (Rad21)2-Rh110 were used in the Separase activity assay.

Separase [2] = biological target: T1, Separase; assay: In vitro cleavage of Myc-Rad21 assay; type: biochemical; conditions: Sepin-1 50 μm; in vitro transcribed and translated Myc-Rad21
Protocol: Myc-Rad21 protein was prepared by using pCS2MT Rad21 plasmid ([…]) as the template and the TNT SP6 High-Yield Wheat Germ Protein Expression kit (Promega, Madison, Wis.). Myc-Rad21 protein was mixed with Separase with or without the presence of Sepin-1. The final concentration of Sepin-1 was 50 μM. The reaction mixture was incubated in a 37° C. water bath for 1 h. The cleavage of myc-Rad21 was immunoblotted with Rad21 pAb.

MCF7 = assay: MTT in vitro cytotoxicity assay; type: cell-based, human
Protocol: The inhibitory effect of Sepin-1 on cell growth was assayed using the 3-(4,5-dimethylthiazol-2yl)-2,5-diphenyl-tetrazolium bromide (MTT) colorimetric dye reduction method (Cancer Chemother. Pharmacol., 2006, 58, 13-23). One hundred thirty-five μl of exponentially growing cancer cells were plated at a density of 0.4-1.0×10^5 cells/well in a 96-well microtiter plate. After 16 h, Sepin-1 at specified concentrations was added to each well. After 72 h of continuous drug exposure, 15 μl of 5 mg/ml MTT was added to each well and the plates were incubated for 4 h at 37° C. Medium was replaced with 150 μl of DMSO to solubilize the formazan, and the optical density (OD) was measured at 550 nm using a microplate spectrophotometer (Anthos Analytical, Durham, N.C., USA). Cell viability was calculated by subtracting the background OD of media alone from the OD of test wells, then dividing by the OD of the control (untreated) wells. Replicates of 3 wells were used for each drug concentration. The in vitro cytotoxicity assay was repeated once and the IC50 reported was the average of two independent experiments.

[3] = tested on: MC1 triple-negative breast tumor xenograft; assay: Growth inhibition of patient-derived xenograft MC1; type: in vivo, SCID-beige mice; conditions: 10 mg/kg intraperitoneal injection, three week treatment
Description: (§1) Patient-derived xenograft (PDX) lines MC1 (ER− PR− HER2−) (Proc Natl Acad Sci USA. 100, 2003, 3983-3988) and BCM-5471 (ER− PR− HER2−) (Cancer Res. 73, 2013, 4885-4897) were maintained as described (Cancer Res. 73, 2013, 4885-4897) by serial transplantation into SCID Beige immunocompromised host mice whose endogenous mammary epithelium was removed surgically (Cancer Res. 19, 1959, 515-20).
(§2) For treatment studies, MCF7 xenografts (ER+ PR+ HER2−) were generated by injection of one million cultured cells grown under standard in vitro conditions as previously described (Proc. Natl. Acad. Sci. U. S. A 105, 2008, 13033-13038). Donor tumors for PDX lines MC1 and BCM-5471 were divided into small fragments and retransplanted into the fat pat of recipient SCID Beige mice (5 mice per group). When the tumors reached approximately ˜200 mg, mice were treated with either vehicle or Sepin-1. Sepin-1 was injected at dose of 10 mg/kg daily for 5 days a week for 3 weeks. […] Vehicle injected mice served as controls. Size of the xenografts were measured every four days using calipers and tumor weight was estimated using the guidelines by NCI for xenograft evaluation (http://ncifrederick.cancer.gov/Lasp/Acuc/Frederick/Media/Documents/ACUC14.pdf). After 3 weeks treatment, the tumors were harvested and fixed in 10% Buffed Formalin Phosphate (Fisher Scientific, Pittsburgh, Pa.) overnight. […]

[4] = tested on: BCM-5471 triple-negative breast tumor xenograft; assay: Growth inhibition of patient-derived xenograft BCM-5471; type: in vivo, SCID-beige mice; conditions: 10 mg/kg intraperitoneal injection, three week treatment
Description: as §1, §2

[5] = tested on: Separase overexpressing primary pediatric glioblastoma samples; assay: MTT cytotoxicity assays in primary pediatric glioblastoma samples; type: cell-based; conditions: two Separase overexpressing primary pediatric glioblastoma samples
Protocol: FIG. 10 provides data relating to separase overexpression in Pediatric glioblastoma (GBM) and the effect of Sepin-1 in inhibiting the growth of glioblastoma cells in vitro and in vivo. […] SCID-beige mice after two weeks of transplantation were treated at a dose of 10 mg/kg daily ip for 5 days a week for 4 weeks with either Sepin-1 or vehicle (n=6/group).

CC1(C)[N+]([O-])=c2ccc([N+](=O)[O-])cc2=[N+]1[O-] [Sepin-1, 2,2-dimethyl-5-nitro-2H-benzimidazole-1,3 dioxide]
effect of 0.1% Tween-20 or 1% BSA on inhibition kinetics (Separase [1]; 0.1% Tween-20 or 1% BSA in the reaction mixture): did not affect the kinetics of Sepin-1 in inhibiting Separase activity | pIC50 (Separase [1]; calculated using KaleidaGraph, read-out: IC50 of Separase activity inhibition): 4.83 | pIC50 (Separase [1]; four-parameter fit, n=3, read-out: estimated IC50, four-parameter dose-response curve fit): 4.80 | dose dependence of Separase activity inhibition (Separase [1]; FIG. 9B): dose-dependent inhibition of Separase activity | mode of inhibition (effect on Km and Vmax) (Separase [1]; Lineweaver-Burk plot, Sepin-1 mixed with Separase 30 min before substrate): did not affect the Km but reduced the Vmax; also recorded: reduced the speed (Vmax) of substrate conversion by Separase, but not the Km | verified activity in inhibiting Separase enzymatic activity (Separase [1]; re-test of HTS hits): highest activity | inhibition of Rad21 cleavage by activated Separase (Separase [2]): could inhibit the Rad21 cleavage by activated Separase; also recorded: inhibits the cleavage of Separase substrate Rad21 | pIC50 (MCF7; Homo sapiens, MCF7, Breast, 72 h, read-out: IC50 growth inhibition): 4.84 | sensitivity of MCF7 cells relative to MCF10f cells (MCF7; MCF7 versus MCF10f): over 3.3 times | inhibition of growth of xenograft MC1 tumors versus vehicle [3]: 70% | growth of xenograft BCM-5471 versus vehicle [4]: no significant difference in growth; also recorded: more sensitive to Sepin-1 than MC-1 tumors | cell death in MTT cytotoxicity assays [5]: efficient cell death
